Reference: patent US5834453A, “Methods for the manufacture and use of antimicrobial sterol conjugates” (Lehigh University, priority 1997, dated 1998)
In brackets after ≈: the same amount, converted by molar mass.

Assays:
[1] = Hemolytic activity, minimal hemolytic concentration (MHC); assay type: cell-based, sheep; conditions: sheep, red blood cells;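 further: MCC here is the minimal hemolytic concentration (MHC)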
Experimental: Hemolytic activity of the squalamine mimics according to the present invention were also studied by incubating sheep red blood cells for 24 hours at 37° C. in saline (final concentration of 0.5%) with or without respective concentrations of the squalamine mimics. The minimal hemolytic concentration (MHC) was determined as the lowest concentration of a mimic that raised visible hemolysis.

S. marcescens (13880) = assay: MIC, micro-broth dilution; assay type: cell-based; conditions: Serratia marcescens, 24 h, read-out: ANTIMICROBIAL ACTIVITY (MIC)
Experimental: (§1) The antimicrobial activity of the compounds according to the present invention were compared with the results obtained for squalamine as reported in Proc. Nat. Acad. Sci. USA 90:1354 (1993), supra, the disclosure of which is incorporated in toto herein. The data reported in the following table is the minimum inhibitory concentration (MIC) required for complete inhibition of microbial growth. The MIC was determined utilizing known micro-broth dilution methods in which inocula of 10^6 /ml of the test organism were incubated in 0.5× trypticase soy broth at 35° C. for 24 hours. MIC's were also tested under various pH conditions, with calcium chloride or magnesium chloride, or with immobilized horse serum.
(§2) The numbers in parentheses contained in the table correspond to accession numbers with the American Type Culture Collection (reference strains were either obtained from the American Type Culture Collection or from the Microbiology Laboratory at Memorial Sloan-Kettering Cancer Center; Bacterial strains were maintained on Columbia 5% sheep blood agar plates, and fungi were maintained on Sabouraud Dextrose agar plates).

S. aureus (H20809) = assay: MIC, micro-broth dilution; assay type: cell-based; conditions: Staphylococcus aureus, 24 h, read-out: ANTIMICROBIAL ACTIVITY (MIC)
Experimental: as §1, §2

E. faecalis (29212) = assay: MIC, micro-broth dilution; assay type: cell-based; conditions: Enterococcus faecalis, 35° C., 24 hours, read-out: ANTIMICROBIAL ACTIVITY (MIC)
Experimental: as §1, §2

A. fumigatus (H29709) = assay: MIC, micro-broth dilution; assay type: cell-based; conditions: Aspergillus fumigatus, 35° C., 24 hours, read-out: ANTIMICROBIAL ACTIVITY (MIC)
Experimental: as §1, §2

C. albicans (90028) = assay: MIC, micro-broth dilution; assay type: cell-based; conditions: Candida albicans, 35° C., 24 hours, read-out: ANTIMICROBIAL ACTIVITY (MIC)
Experimental: as §1, §2

C. neoformans (M68979) = assay: MIC, micro-broth dilution; assay type: cell-based; conditions: Cryptococcus neoformans, 24 h, read-out: ANTIMICROBIAL ACTIVITY (MIC)
Experimental: as §1, §2

E. cloacae (13047) = assay: MIC, micro-broth dilution; assay type: cell-based; conditions: Enterobacter cloacae, 35° C., 24 hours, read-out: ANTIMICROBIAL ACTIVITY (MIC)
Experimental: as §1, §2

K. pneumoniae (13883) = assay: MIC, micro-broth dilution; assay type: cell-based; conditions: Klebsiella pneumoniae, 24 h, read-out: ANTIMICROBIAL ACTIVITY (MIC)
Experimental: as §1, §2

C. neoformans (90012) = assay: MIC, micro-broth dilution; assay type: cell-based; conditions: Cryptococcus neoformans, 24 h, read-out: ANTIMICROBIAL ACTIVITY (MIC)
Experimental: as §1, §2

E. coli (25922) = assay: MIC, micro-broth dilution; assay type: cell-based; conditions: Escherichia coli, 35° C., 24 hours, read-out: ANTIMICROBIAL ACTIVITY (MIC)
Experimental: as §1, §2

P. vulgaris (13315) = assay: MIC, micro-broth dilution; assay type: cell-based; conditions: Proteus vulgaris, 35° C., 24 hours, read-out: ANTIMICROBIAL ACTIVITY (MIC)
Experimental: as §1, §2

S. agalactiae (13813) = assay: MIC, micro-broth dilution; assay type: cell-based; conditions: Streptococcus agalactiae, 35° C., 24 hours, read-out: ANTIMICROBIAL ACTIVITY (MIC)
Experimental: as §1, §2

S. pyrogenes (19615) = assay: MIC, micro-broth dilution; assay type: cell-based; conditions: 24 h, read-out: ANTIMICROBIAL ACTIVITY (MIC)
Experimental: as §1, §2

P. aeruginosa (10145) = assay: MIC, micro-broth dilution; assay type: cell-based; conditions: Pseudomonas aeruginosa, 35° C., 24 hours, read-out: ANTIMICROBIAL ACTIVITY (MIC)
Experimental: as §1, §2

P. aeruginosa (2853) = assay: MIC, micro-broth dilution; assay type: cell-based; conditions: Pseudomonas aeruginosa, 24 h, read-out: ANTIMICROBIAL ACTIVITY (MIC)
Experimental: as §1, §2

A. fumigatus (H1120) = assay: MIC, micro-broth dilution; assay type: cell-based; conditions: Aspergillus fumigatus, 35° C., 24 hours, read-out: ANTIMICROBIAL ACTIVITY (MIC)
Experimental: as §1, §2

S. pneumoniae (6305) = assay: MIC, micro-broth dilution; assay type: cell-based; conditions: Streptococcus pneumoniae, 35° C., 24 hours, read-out: ANTIMICROBIAL ACTIVITY (MIC)
Experimental: as §1, §2

E. faecium (T6480-9) = assay: MIC, micro-broth dilution; assay type: cell-based; conditions: Enterococcus faecium, 35° C., 24 hours, read-out: ANTIMICROBIAL ACTIVITY (MIC)
Experimental: as §1, §2

S. aureus (29213) = assay: MIC, micro-broth dilution; assay type: cell-based; conditions: Staphylococcus aureus, 24 h, read-out: ANTIMICROBIAL ACTIVITY (MIC)
Experimental: as §1, §2

S. epidermidis (12228) = assay: MIC, micro-broth dilution; assay type: cell-based; conditions: Staphylococcus epidermidis, 35° C., 24 hours, read-out: ANTIMICROBIAL ACTIVITY (MIC)
Experimental: as §1, §2

S. aureus (25923) = assay: MIC, micro-broth dilution; assay type: cell-based; conditions: Staphylococcus aureus, 35° C., 24 hours, read-out: ANTIMICROBIAL ACTIVITY (MIC)
Experimental: as §1, §2

[2] = tested on: various groups of microorganisms; assay: Antimicrobial activity (MIC), all microorganisms tested; assay type: cell-based
Experimental: as §1, §2

SMILES	MCC at 24 h [1] [µg/mL]	MIC (S. marcescens (13880)) [µg/mL]	MIC (S. aureus (H20809)) [µg/mL]	MIC (E. faecalis (29212)) [µg/mL]	MIC (A. fumigatus (H29709)) [µg/mL]	MIC (C. albicans (90028)) [µg/mL]	MIC (C. neoformans (M68979)) [µg/mL]	MIC (E. cloacae (13047)) [µg/mL]	MIC (K. pneumoniae (13883)) [µg/mL]	MIC (C. neoformans (90012)) [µg/mL]	MIC (E. coli (25922)) [µg/mL]	MIC (P. vulgaris (13315)) [µg/mL]	MIC (S. agalactiae (13813)) [µg/mL]	MIC (S. pyrogenes (19615)) [µg/mL]	MIC (P. aeruginosa (10145)) [µg/mL]	MIC (P. aeruginosa (2853)) [µg/mL]	MIC (A. fumigatus (H1120)) [µg/mL]	MIC (S. pneumoniae (6305)) [µg/mL]	MIC (E. faecium (T6480-9)) [µg/mL]	MIC (S. aureus (29213)) [µg/mL]	also measured
C[C@H](CCC(=O)NCCNCCNCCN)[C@H]1CC[C@H]2[C@@H]3CC[C@@H]4CCCC[C@]4(C)[C@H]3CC[C@]12C [SM-21]	3.13	> 100	3.13 (≈ 6.4 µM)	3.13 (≈ 6.4 µM)	3.13 (≈ 6.4 µM)	6.25 (≈ 12.8 µM)	1.56 (≈ 3.19 µM)	> 100	> 100	1.56 (≈ 3.19 µM)	50 (≈ 102 µM)	50 (≈ 102 µM)	1.56 (≈ 3.19 µM)	3.13 (≈ 6.4 µM)	25 (≈ 51.1 µM)	25 (≈ 51.1 µM)	6.25 (≈ 12.8 µM)	1.56 (≈ 3.19 µM)	1.56 (≈ 3.19 µM)	3.13 (≈ 6.4 µM)	MIC (S. epidermidis (12228)): 1.56 µg/mL (≈ 3.19 µM); MIC (S. aureus (25923)): 3.13 µg/mL (≈ 6.4 µM)
C[C@H](CCC(=O)NCCNCCNCCN)[C@H]1CC[C@H]2[C@@H]3[C@H](O)C[C@@H]4C[C@H](O)CC[C@]4(C)[C@H]3C[C@H](O)[C@]12C [SM-17]	> 100	> 100	50 (≈ 93.1 µM)	50 (≈ 93.1 µM)	25 (≈ 46.6 µM)	25 (≈ 46.6 µM)	12.5 (≈ 23.3 µM)	50 (≈ 93.1 µM)	50 (≈ 93.1 µM)	12.5 (≈ 23.3 µM)	50 (≈ 93.1 µM)	50 (≈ 93.1 µM)	12.5 (≈ 23.3 µM)	12.5 (≈ 23.3 µM)	100 (≈ 186 µM)	50 (≈ 93.1 µM)	25 (≈ 46.6 µM)	25 (≈ 46.6 µM)	50 (≈ 93.1 µM)	25 (≈ 46.6 µM)	MIC (S. epidermidis (12228)): 25 µg/mL (≈ 46.6 µM); MIC (S. aureus (25923)): 25 µg/mL (≈ 46.6 µM)
C[C@H](CCC(=O)NCCCNCCCCNCCCN)[C@H]1CC[C@H]2[C@@H]3CC[C@@H]4CCCC[C@]4(C)[C@H]3CC[C@]12C [SM-19]	6.25	> 100	3.13 (≈ 5.74 µM)	6.25 (≈ 11.5 µM)	3.13 (≈ 5.74 µM)	3.13 (≈ 5.74 µM)	0.78 (≈ 1.43 µM)	> 100	6.25 (≈ 11.5 µM)	0.78 (≈ 1.43 µM)	3.13 (≈ 5.74 µM)	> 100	3.13 (≈ 5.74 µM)	3.13 (≈ 5.74 µM)	> 100	12.5 (≈ 22.9 µM)	3.13 (≈ 5.74 µM)	0.78 (≈ 1.43 µM)	3.13 (≈ 5.74 µM)	3.13 (≈ 5.74 µM)	MIC (S. epidermidis (12228)): 1.56 µg/mL (≈ 2.86 µM); MIC (S. aureus (25923)): 3.13 µg/mL (≈ 5.74 µM); antimicrobial activity (in words) [2]: highly active
C[C@H](CCC(=O)NCCCNCCCCNCCCN)[C@H]1CC[C@H]2[C@@H]3CC[C@@H]4C[C@H](OS(=O)(=O)O)CC[C@]4(C)[C@H]3C[C@H](OS(=O)(=O)O)[C@]12C [SM-8]	> 100	> 100	25 (≈ 33.9 µM)	> 100	> 100	100 (≈ 136 µM)	50 (≈ 67.8 µM)	> 100	50 (≈ 67.8 µM)	50 (≈ 67.8 µM)	> 100	50 (≈ 67.8 µM)	50 (≈ 67.8 µM)	6.25 (≈ 8.48 µM)	100 (≈ 136 µM)	25 (≈ 33.9 µM)	> 100	50 (≈ 67.8 µM)	100 (≈ 136 µM)	25 (≈ 33.9 µM)	MIC (S. epidermidis (12228)): 25 µg/mL (≈ 33.9 µM); MIC (S. aureus (25923)): 25 µg/mL (≈ 33.9 µM)
C[C@H](C(=O)NCCCCN)[C@H]1CC[C@H]2[C@@H]3CC=C4C[C@@H](OS(=O)(=O)O)CC[C@]4(C)[C@H]3CC[C@]12C [SM-4]	–	–	–	–	–	–	–	–	–	–	–	–	–	–	–	–	–	–	–	–	MIC ([2]; 24 h, read-out: MICs against the various groups of microorganisms tested): > 100 µg/mL
